Experimental data as given in patent US8175808B2, “Method for determining disease treatment duration” (Sloan Kettering Institute for Cancer Research, priority 2005, dated 2012).

Legend:
[1] = tested on: MX-1 or MAXF401 human breast cancer xenografts; conditions: 6 weeks, CDS (days on/off) 14/7, 5/2, 2/5, 7/7, 4 dose levels plus control; Yanagisawa, Proc. AACR 2004; cited from earlier work
[2] = tested on: MX-1 or MAXF401 human breast cancer xenografts; test: Tumor volume growth in mice bearing human breast cancer xenografts; drug effect DE(t) and time point of maximum impact (TPMI) from Gompertzian/polynomial fits; type: in vivo; conditions: for maximum drug effect, DE(TPMI): dimensionless; for elapsed time to zero crossing of derivative DE'(t) (TPMI) / elapsed time after start of treatment to relative maximum in DE(t) (TPMI): pooled data, 14 days on/7 off; for elapsed time after start of treatment to relative maximum in DE(t) (TPMI): first cycle
From the text: The untreated series of measurements reveal the progression of the disease without treatment, and therefore it is not obtained from a patient to be treated using the method. Typically the untreated series of measurements describes the progression of the disease in one or more historical cases, or test subjects, or both. For example, the untreated series of measurements describes the progression of tumor volume with time in breast cancer victims who are not treated for some number of weeks. In the illustrated embodiment, described further in later sections, the untreated series of measurements describe tumor volume in mice bearing MX-1 or MAXF401 human breast cancer xenografts approximately every two days for about seven weeks (50 days). FIG. 2A is a graph 210 that illustrates, as solid-filled circles 216, pooled measurements of tumor volume growth for untreated breast cancer in xenograft models (MX-1). Untreated tumor growth is sometimes called “naïve growth.” The horizontal axis 212 indicates the passage of time in days since an initial time. The vertical axis 214 indicates the tumor volume in cubic millimeters (mm^3). The solid trace 218 represents a model fit to the data as described in more detail below.
In the illustrated embodiment, described further in later sections, two treated series of measurements describe tumor volume in mice bearing MX-1 or MAXF401 human breast cancer xenografts approximately every two days for about seven weeks (50 days) during treatment. The treatment involves administering the drug XELODA according to the standard protocol: a 14-day duration of administering the drug at a particular dose, followed by a 7 day hiatus in administering the drug. One treatment uses a lower dose of 1.5 millimoles (mmol) per kilogram (kg) of victim weight per day (mmol/kg/day). A second treatment uses a higher dose of 2.25 mmol/kg/day. Each of the two treated series describes the progression of tumor volume with time in the treated victim of the disease, and includes an initial measurement of tumor volume at or near when the treatment was started, for example just before the first injection of the drug. The initial measurement is used in a later step to relate a treated series to the untreated series, which typically occur in different subjects.
In step 130, a temporal series of effectiveness values is determined. Any method may be used to determine an effectiveness value. In the illustrated embodiment, each effectiveness value indicates the ratio between the rate of change of the physical property for the treated disease and the rate of change for the untreated disease at a corresponding time. For purposes of illustration, it is assumed that the temporal progression of the physical property for the untreated disease is represented by the function Pu(t) and that its rate of change is given by its first time derivative Pu′(t). Similarly, it is assumed that the temporal progression of the physical property for the treated disease is represented by the function Pt(t) and that its rate of change is given by its first time derivative Pt′(t). It is further assumed that the temporal progression of the ratio is represented by the function R(t) and is given by Equation 1 R(t)=Pt′(t)/Pu′(t) (1). In other embodiments, a different definition of ratio is used. For example, in some embodiments the ratio given by the reciprocal of R(t) is used. In the illustrated embodiments, R is the ratio of two physical properties with the same units and is therefore dimensionless.
An effectiveness parameter is often defined that indicates the ratio R(t) but offers a more useful description of the effect of a treatment than the ratio itself. […]

CCCCCOC(=O)Nc1nc(=O)n([C@@H]2O[C@H](C)[C@@H](O)[C@H]2O)cc1F [capecitabine]
effectiveness of CDS regimens [1]: all were effective at an appropriate dose
maximum drug effect, DE(TPMI) ([2]; 7-day duration/7-day hiatus, high dose 2.5 mmol/kg/day): about 0.8
maximal DE, 7 on/7 off CDS compared with 14 on/7 off CDS ([2]; follow-up experiment, higher daily dose with 7 on/7 off): increased maximal DE
elapsed time to zero crossing of derivative DE'(t) (TPMI) ([2]; higher dose 2.25 mmol/kg/day): 8.3 days
elapsed time after start of treatment to relative maximum in DE(t) (TPMI) ([2]; higher dose 2.25 mmol/kg/day): 8 days
elapsed time to zero crossing of derivative DE'(t) (TPMI) ([2]; lower dose 1.5 mmol/kg/day): 10.1 days
elapsed time after start of treatment to relative maximum in DE(t) (TPMI) ([2]; lower dose 1.5 mmol/kg/day): 10 days
time point of maximum impact (TPMI), averaged, days into therapy ([2]; pooled mice, dose levels analyzed (1.5 and 2.25 mmol/kg/day), 14/7 CDS): 8.3 to 10.1 days
maximum drug effect, DE(TPMI) ([2]; standard protocol, 14-day duration/7-day hiatus): about 0.65
